This data set can be described thus: log P by HPLC on reversed-phase columns (C 18), method [a], acidic range pH 2.3. Particulars: for chromatographic logP: pH 2.3, log P (pH 2.3); for log P (pH 2.3) / log p: pH 2.3. In kind it is physicochemical. The protocol: The log P values were measured in accordance with EEC Directive 79/831 Annex V.A8 by HPLC (High Performance Liquid Chromatography) on reversed-phase columns (C 18) using the methods below: [a] The determination was carried out in the acidic range at pH 2.3 using the mobile phases 0.1% aqueous phosphoric acid and acetronitrile linear gradient from 10% acetonitrile to 95% acetronitrile.

`CC1(C)CC(=O)N(c2cccc([N+](=O)[O-])c2)C1=O` [3,3-Dimethyl-1-(3-nitrophenyl)pyrrolidine-2,5-dione] came in with a chromatographic logP of 2.01.

Regarding `Nc1cccc(N2CCOC2=O)c1` [3-(3-Aminophenyl)-1,3-oxazolidin-2-one], the chromatographic logP is -0.18.

`CC1CN(c2cccc(N)c2)C(=O)O1` (centres unmarked) [3-(3-Aminophenyl)-5-methyl-1,3-oxazolidin-2-one]: the chromatographic logP came to 0.33.

Take `CC1CCN(Cc2cccc([N+](=O)[O-])c2)C1=O` (centres unmarked) [3-Methyl-1-(3-nitrobenzyl)pyrrolidin-2-one]: the chromatographic logP was determined as 1.82.

As to `COc1cc(NC(=O)CCCCl)cc([N+](=O)[O-])c1` [4-Chloro-N-(3-methoxy-5-nitrophenyl)butanamide], the chromatographic logP stood at 2.46.

In turn, `Clc1cnc(Nc2ccc(I)cc2)nc1NC1CC1` [5-Chloro-N^4-cyclopropyl-N^2-(4-iodophenyl)pyrimidine-2,4-diamine] displayed a chromatographic logP of 2.73.

For `CCC1CC(C)C(=O)N1` (centres unmarked) [5-Ethyl-3-methylpyrrolidin-2-one], the “log P (pH 2.3)” value worked out at 0.96 and the chromatographic logP amounted to 1.02.

`CC(C)[C@@H]1COC(=O)N1c1cccc(N)c1` [(4R)-3-(3-Aminophenyl)-4-isopropyl-1,3-oxazolidin-2-one] yielded a chromatographic logP of 1.18.

In turn, `C[C@@H]1COC(=O)N1c1cccc(N)c1` [(4R)-3-(3-Aminophenyl)-4-methyl-1,3-oxazolidin-2-one] had a chromatographic logP of 0.27.

Take `CCOC(=O)[C@@H]1CCC(=O)N1c1cccc(N)c1` [Ethyl 1-(3-aminophenyl)-5-oxo-L-prolinate]: the chromatographic logP is 0.84.

For the compound `COCC(C)Nc1nc(Nc2cccc(N3CCCC3=O)c2)ncc1Cl` (centres unmarked) [Example 2], the log p was 1.53[a].

As to `CCC(C)Nc1nc(Nc2ccc(N3CCCC3=O)cc2)ncc1Cl` (centres unmarked) [Example 7], the log p was 1.65[a].

For `CC1CCN(c2cccc(Nc3ncc(Cl)c(NC4CC4)n3)c2)C1=O` (centres unmarked) [Example 26], the log p was 1.76[a].

For the compound `CCC1COC(=O)N1c1cccc(Nc2ncc(Br)c(NC3CC3)n2)c1` (centres unmarked) [Example 32], the log p was 2.01[a].

For the compound `CNc1nc(Nc2cccc(N3CCCC3=O)c2)ncc1Cl` [Example 38], the log p is 1.05[a].

With `CC(C)C1COC(=O)N1c1cccc(Nc2ncc(Cl)c(NC3CC3)n2)c1` (centres unmarked) [Example 39], the log p is 2.13[a].

For the compound `CC(C)C1COC(=O)N1c1cccc(Nc2ncc(Br)c(NC3CC3)n2)c1` (centres unmarked) [Example 45], the log p is 2.24[a].

As for `CC(C)C1COC(=O)N1c1cccc(Nc2ncc(Cl)c(NC3CCC3)n2)c1` (centres unmarked) [Example 46], the log p was 2.41[a].

Consider `CC(C)CC1COC(=O)N1c1cccc(Nc2ncc(Cl)c(NC3CC3)n2)c1` (centres unmarked) [Example 47], for which the log p was 2.54[a].

On to `CC(C)CC1COC(=O)N1c1cccc(Nc2ncc(Br)c(NC3CC3)n2)c1` (centres unmarked) [Example 48], for which the log p was 2.69[a].

In the case of `CC(C)CC1COC(=O)N1c1cccc(Nc2ncc(Cl)c(NC3CCC3)n2)c1` (centres unmarked) [Example 49], the log p was 2.83[a].

Take `CC(C)CC1COC(=O)N1c1cccc(Nc2ncc(Br)c(NC3CCC3)n2)c1` (centres unmarked) [Example 50]: the log p was 3.05[a].

Take `O=C1CCCCCN1c1cccc(Nc2ncc(Br)c(NC3CC3)n2)c1` [Example 54]: the log p is 1.82[a].

As for `O=C1CCCCCN1c1cccc(Nc2ncc(Cl)c(NC3CC3)n2)c1` [Example 55], the log p is 1.7[a].

For the compound `CC1COC(=O)N1c1cccc(Nc2ncc(Cl)c(NC3CCC3)n2)c1` (centres unmarked) [Example 57], the log p was 1.81[a].

As for `O=C1CCCCN1c1cccc(Nc2ncc(F)c(NC3CCC3)n2)c1` [Example 58], the log p was 1.29[a].

In the case of `O=C1CCC(CO)N1c1cccc(Nc2ncc(Cl)c(NC3CC3)n2)c1` (centres unmarked) [Example 86], the log p is 0.98[a].

As to `O=C1CCC(c2ccccc2)N1c1cccc(Nc2ncc(Cl)c(NC3CC3)n2)c1` (centres unmarked) [Example 87], the log p is 2.1[a].

Consider `C[C@@H]1COC(=O)N1c1cccc(Nc2ncc(Cl)c(NC3CCC3)n2)c1` [Example 102], for which the log p was 1.56[a].

For `C[C@@H]1COC(=O)N1c1cccc(Nc2ncc(Cl)c(NC3CC3)n2)c1` [Example 103], the log p was 1.8[a].

As for `CC(C)[C@H]1COC(=O)N1c1cccc(Nc2ncc(Cl)c(N(C)C3CC3)n2)c1` [Example 115], the log p is 3.09[a].

Take `CCC1=C(C)CN(c2cccc(Nc3ncc(Br)c(NC4CC4)n3)c2)C1=O` [Example 232]: the log p is 2.42[a].

`FC(F)CNc1nc(Cl)ncc1Cl` [Example V-2, 2,5-Dichloro-N-(2,2-difluoroethyl)pyrimidin-4-amine] registered a chromatographic logP of 1.96.

The compound `COCC(C)Nc1nc(Cl)ncc1C(F)(F)F` (centres unmarked) [Example V-3, 2-Chloro-N-(3-methoxypropan-2-yl)-5-trifluoromethylpyrimidin-4-amine] showed a chromatographic logP of 2.75.

For the compound `FC(F)CNc1nc(Cl)ncc1Cl` [Example V-4, 2,5-Dichloro-N-(2,2-difluoroethyl)pyrimidin-4-amine], the “log P (pH 2.3)” value is listed as 1.96.

`FC(F)(F)CNc1nc(Cl)ncc1Cl` [Example V-5, 2,5-Dichloro-N-(2,2,2-trifluoroethyl)pyrimidin-4-amine] yielded a chromatographic logP of 2.26.

The compound `CC1CC(Nc2nc(Cl)ncc2Br)C1` (centres unmarked) [Example V-6, 5-Bromo-2-chloro-N-(3-methylcyclobutyl)pyrimidin-4-amine] yielded a chromatographic logP of 3.47.

In turn, `CN(c1nc(Cl)ncc1Cl)C1CC1` [Example V-26, 2,5-Dichloro-N-methyl-N-cyclopropylpyrimidin-4-amine] had a chromatographic logP of 2.82.

In turn, `CC1(C)CC1Nc1nc(Cl)ncc1Cl` (centres unmarked) [Example V-27, 2,5-Dichloro-N-(2,2-dimethylcyclopropyl)pyrimidin-4-amine] came in with a chromatographic logP of 3.04.

`Fc1cnc(Cl)nc1NC1CCC1` [Example V-28, 5-Fluoro-2-chloro-N-cyclobutylpyrimidin-4-amine] had a chromatographic logP of 2.17.

`Clc1ncc(Cl)c(NC2COC2)n1` [Example V-29, 2,5-Dichloro-N-(oxetan-3-yl)pyrimidin-4-amine]: the chromatographic logP was found to be 1.31.

With `COCC(C)Nc1nc(Cl)ncc1C#N` (centres unmarked) [Example V-30, 2-Chloro-4-[(1-methoxypropan-2-yl)-amino]pyrimidine-5-carbonitrile], the chromatographic logP is 1.83.

For `Clc1ncc(Cl)c(N2CCSCC2)n1` [Example V-32, 4-(2,5-Dichloropyrimidin-4-yl)thiomorpholine], the chromatographic logP amounted to 2.84.

Compound `Clc1ncc(Cl)c(N2CCOCC2)n1` [Example V-33, 4-(2,5-Dichloropyrimidin-4-yl)morpholine] displayed a chromatographic logP of 1.99.

In the case of `Clc1ncc(Cl)c(N2CCCC2)n1` [Example V-34, 2,5-Dichloro-4-(pyrrolidin-1-yl)pyrimidine], the chromatographic logP came to 2.78.

Compound `Clc1ncc(Cl)c(N2CCC2)n1` [Example V-35, 4-(Azetidin-1-yl)-2,5-dichloropyrimidine] gave a chromatographic logP of 2.11.

In turn, `Clc1ncc(Cl)c(N2CCCCC2)n1` [Example V-36, 2,5-Dichloro-4-(piperidin-1-yl)pyrimidine] came in with a chromatographic logP of 3.52.

In turn, `CC(Nc1nc(Cl)ncc1Cl)C(F)(F)F` (centres unmarked) [Example V-37, 2,5-Dichloro-N-(1,1,1-trifluoropropan-2-yl)pyrimidin-4-amine] had a chromatographic logP of 2.66.

For `CCCNc1nc(Cl)ncc1Cl` [Example V-38, 2,5-Dichloro-N-propylpyrimidin-4-amine], the log p was 2.42.

The compound `CC1CC(Nc2nc(Cl)ncc2Cl)C1` (centres unmarked) [Example V-39, 2,5-Dichloro-N-(3-methylcyclobutyl)pyrimidin-4-amine] yielded a chromatographic logP of 3.2.

Consider `CC1CC1Nc1nc(Cl)ncc1Cl` (centres unmarked) [Example V-40, 2,5-Dichloro-N-(2-methylcyclopropyl)pyrimidin-4-amine], for which the chromatographic logP came to 2.53.

As for `CC1CC1Nc1nc(Cl)ncc1Br` (centres unmarked) [Example V-41, 5-Bromo-2-chloro-N-(2-methylcyclopropyl)pyrimidin-4-amine], the chromatographic logP was determined as 2.68.

`CC1CC1Nc1nc(Cl)ncc1C(F)(F)F` (centres unmarked) [Example V-42, 2-Chloro-N-(2-methylcyclopropyl)-5-(trifluoromethyl)pyrimidin-4-amine] returned a chromatographic logP of 3.02.

Turning to `CCC1CC1Nc1nc(Cl)ncc1Cl` (centres unmarked) [Example V-43, 2,5-Dichloro-N-(2-ethylcyclopropyl)pyrimidin-4-amine], the chromatographic logP was determined as 3.1.

Compound `CCC(CC(C)C(=O)OC)[N+](=O)[O-]` (centres unmarked) [Methyl 2-methyl-4-nitrohexanoate] yielded a chromatographic logP of 2.23.

Compound `O=C1CCCN1c1cccc(Nc2ncc(C(F)(F)F)c(Cl)n2)c1` [VI-1, 1-(3-{[4-Chloro-5-(trifluoromethyl)pyrimidin-2-yl]amino}phenyl)pyrrolidin-2-one] gave a chromatographic logP of 2.98.

Compound `O=C1CCCN1c1cc(Nc2ncc(C(F)(F)F)c(Cl)n2)ccc1F` [VI-2, 1-(5-{[4-Chloro-5-(trifluoromethyl)pyrimidin-2-yl]amino}-2-fluorophenyl)pyrrolidin-2-one] had a chromatographic logP of 2.84.

`O=C1CCCN1c1cccc(Nc2ncc(C(F)F)c(F)n2)c1` [VI-3, 1-(3-{[5-(Difluoromethyl)-4-fluoropyrimidin-2-yl]amino}phenyl)pyrrolidin-2-one] showed a chromatographic logP of 2.28.

In the case of `O=C1OCCN1c1ccc(Nc2ncc(C(F)(F)F)c(Cl)n2)cc1` [VI-4, 3-(4-{[4-Chloro-5-(trifluoromethyl)pyrimidin-2-yl]amino}phenyl)-1,3-oxazolidin-2-one], the “log P (pH 2.3)” value is 2.76 and the chromatographic logP was found to be 2.74.

`Brc1cnc(Nc2cccc(I)c2)nc1NC1CC1` [VII-2, 5-Bromo-N^4-cyclopropyl-N^2-(3-iodophenyl)pyrimidine-2,4-diamine] came in with a chromatographic logP of 3.34.

Source of the values: patent US20110245242A1, “Heterocyclically Substituted Anilinopyrimides” (Bayer CropScience AG, priority 2008, published 2011).
